row,Compound,melting point [°C]
1,O=C(CC(=O)C1CC1)c1cnccn1,111 to 112
2,CC(C)c1ccc(N(Cc2ccc(N(C)C)cc2)C(=O)C2CCSc3ccccc32)cc1 (centres undefined),118
3,CON=C(CBr)c1ccc(Cl)cc1,57 to 60
4,CC1(C)O[C@H]2[C@H](OCc3ccccc3)O[C@H](C(N)=O)[C@H]2O1,78
5,O=C(NCCCN1CCCCC1)c1ccc(-c2ccc3nnn(Cc4ccc5ncccc5c4)c3n2)cc1F,135 to 137
6,CNC1NC(=O)N(C)C(=O)N1N (centres undefined),225 to 227
7,CN1Cc2c(-c3nc(CN)no3)ncn2-c2ccccc2C1=O,183 to 185
8,S=C1CSc2ccccc2CN1,215 to 219
9,O=C(Nc1ccc(S(=O)(=O)c2ccncc2)cc1)C(O)(C(F)(F)F)C(F)(F)F,235 to 237
10,COC(=O)NC(CC(=O)c1ccccc1)C(=O)O (centres undefined),132 to 135
11,COP(=O)(OC)C1CC(c2ccc([N+](=O)[O-])cc2)=NO1 (centres undefined),156 to 158
12,O=S(=O)(c1ccccc1)C1CCC(COc2ccc(F)cc2)O1 (racemic),102 to 104
13,CN1CCN(c2cc(F)cc3c(=O)cc(C(=O)Nc4ccc(N5CCN(C(=O)CCO)CC5)cc4)oc23)CC1,195 to 199
14,COc1cc2c(cc1-c1cccnc1)-c1c(-c3cccnc3)c3c(n1CC2)C(=O)N(C(C)(C)C)CCC3,310 to 312
15,Cc1ccc(S(=O)(=O)N2Cc3cscc3C2)cc1,125 to 127
16,CN=NNc1ccc(C)cc1,77 to 80
17,Cc1cccc2c1nc(-c1cccc3ccccc13)n2Cc1c(F)cccc1F,121 to 123
18,O=C1c2cccc3cc4ccccc4c(c23)C(=O)N1CCNCCCNCCN1C(=O)c2cccc3cc4ccccc4c(c23)C1=O,191
19,CN1C(=O)CN(NC(=O)CN)C(c2ccccc2)c2cc(Cl)ccc21 (centres undefined),173 to 175
20,CC(C)(C)OC(=O)N1CCC2(CC1)Cn1cc([N+](=O)[O-])nc1O2,230 to 232
21,CC(C)(C)OC(=O)N[C@H]1COC1=O,120 to 122
22,O=C(NCCN1CCOCC1)Oc1cccc(C2CCCN2Cc2ccccc2)c1 (centres undefined),74 to 77
23,C[C@H](OC(=O)Oc1ccc([N+](=O)[O-])cc1)C(=O)N[C@@H]1C(=O)Nc2c(F)cccc2O[C@@H]1C,140 to 145
24,CN(C)c1ccc(NC(=O)N(C[C@H]2CC[C@H](CN(C(=O)Nc3ccc(N(C)C)cc3)C3CCCCCC3)CC2)C2CCCCCC2)cc1,159 to 164

row,Compound,melting point [°C]
1,"O=C(Nc1ccccc1)NC1C(=O)N(CCO)c2ccccc2N(CC23CC4CC(CC(C4)C2)C3)C1=O (single isomer, unassigned; (-))",165 to 170
2,CNC1(c2ccccc2)CCC(=O)CC1,32 to 38
3,CCCCCCCCCCCCCCCCCCOc1cc(C(N)=O)cc(N(CC(=O)OCc2ccccc2)CC(=O)OCc2ccccc2)c1,112 to 114
4,CC(C)c1cccc2c1C(=O)NS2(=O)=O,177
5,COc1cc(CCl)c(CCl)cc1OCCCl,117 to 118
6,C=CCCCn1c(=O)sc2c(=O)[nH]c(N)nc21,240 to 243
7,Fc1cccc(F)c1C1=NC(c2ccc(-c3ccc(SC(F)F)cc3)cc2)CO1 (centres undefined),75 to 77
8,CCCCCCCCCCCCOC(=O)NCCC(=O)O,88 to 90
9,CCNC=C(C(=O)C=Cc1ccc2c(c1)OCO2)C(=O)OC,124 to 125
10,COc1ccc(CCNc2nc(Cl)nc(N3CCc4cc(OC)c(OC)cc4C3)n2)cc1OC,152 to 153
11,CN(C)c1nc(N)nc2c1sc(=O)n2C1OC(CO)C(O)C1O (centres undefined),> 112
12,COc1cc(OC)c(F)c(N2Cc3cnc(SC)nc3N(C3CC3)C2=O)c1F,173 to 176
13,Cc1cc2c(cc1O)C(C)(C)CC1(CC(C)(C)c3cc(OC(C)(C)CO)c(C)cc3O1)O2 (centres undefined),188 to 189
14,CC(C)(C)OC(=O)C=Cc1ccc(C(=O)C(=C(F)F)c2ccccc2)cc1,88 to 94
15,O=S(=O)(CCc1ccccc1)CCc1ccccc1,98 to 99
16,CC(=O)OC1CSC(Oc2cncc(-c3ccc(CO)cc3)c2)C(OC(C)=O)C1OC(C)=O (centres undefined),132 to 133
17,O=c1nc(-c2cccc(CN3CCC(c4ccccc4)CC3)n2)sc2ccccc12,207 to 208
18,CCCC(O)C1(C)OC(C)=C(O)C1=O (centres undefined),103 to 104
19,CCC(COC)Nc1nc(C)nc(N2CCc3cc(OC)cc(Cl)c32)c1C=O (centres undefined),150 to 153
20,O=C1Nc2ccc(F)c(F)c2C(=O)N2CCC[C@@H]12,> 250
21,N#CCCn1nc(O)nc1Cl,149 to 150
22,CC(CC(F)(F)C(F)(F)C(F)(F)C(F)(F)C(F)(F)C(F)(F)CC(C)C(=O)O)C(=O)O (centres undefined),150 to 151
23,O=C1CCCc2c(O)cccc2N1,244 to 245
24,COc1ccc(C=C(c2ccc(OC)cc2)c2ccc(OC)cc2)cc1,100 to 101

# Results, then the compound that gave them:
row,melting point [°C],Compound
1,107 to 109,COc1ccc(CC(=O)c2ccc(F)cc2)cc1
2,140,COc1ccc(C)cc1NC(=O)Nc1ccc(N2CCNCC2)cc1
3,230 to 231,COC(=O)Nc1nc(-c2ccccc2)c(-c2nc3ccccc3c(=O)n2-c2cccc(Cl)c2)s1
4,195,COC(=O)C1Cc2c([nH]c3ccccc23)C(c2ccc(O)c(OC)c2)N1 (centres undefined)
5,123 to 124,CC(C)CCN1N=C(c2ccc(F)cc2)c2cc(Cl)ccc2CS1(=O)=O
6,125 to 127,CC1(C)OC(=O)c2ccc(COc3c(F)cc([N+](=O)[O-])cc3F)cc21
7,130 to 132,CC(C)(OCc1cc2cc(Cl)ccc2n1S(=O)(=O)c1ccc2c(c1)CCO2)C(=O)O
8,215 to 216,CCCCC(=O)N1CCC(c2nc(-c3ccc(-c4ccccc4)cc3)c[nH]2)CC1
9,155 to 157,Cc1cccc(N2CCN(CCc3nc4cc(Br)c5ccccc5c4n3C)CC2)c1
10,177 to 178,CCCCOc1cc(C(=O)O)cc(NC(C)=O)c1C(=O)c1ccccc1
11,216 to 219,Cc1nc(-c2ccc([N+](=O)[O-])cc2)c[nH]1
12,130 to 131,COc1ccc(C(=NOC(C)=O)c2cc(F)ccc2F)c(O)c1Cl
13,268 to 272,NCc1ccc(C2CCN(c3cc4c(cc3F)c(=O)c(C(=O)O)cn4C3CC3)C2)cc1 (centres undefined)
14,300 to 302,Cc1cc(-c2cc3c(cc2F)c(=O)c(C(=O)O)cn3C2CC2)cc(C)n1
15,346 to 347,N#Cc1ccc(-c2ccc(-c3nc4cc(C#N)ccc4[nH]3)cc2)nc1
16,209 to 210,N=C(N)NC(=O)c1cc(-c2cccc(N)c2)nc2ccccc12
17,194 to 196,CC1=C(C(=O)OC(C)(C)C)C(c2ccccc2Cl)C(C(=O)OC(C)(C)C)=C(C)N1
18,143 to 145,Cc1nc(N2CCC(Cc3ccc(OC(F)F)cc3)C2=O)sc1C(=O)NCc1ccc(F)cc1 (centres undefined)
19,260 to 263,COc1ccc2[nH]c3c(c2c1)C[C@@]1(C)C(=O)N(CCN2CCOCC2)C(=O)N1[C@@H]3c1cccc(O)c1 (racemic)
20,208,COc1ccc(C(=O)Nc2ccc3ccc(Cl)nc3n2)cc1
21,163 to 165,CCOC(=O)NN=Cc1ccc2ccccc2n1
22,161,Cc1ccc2c(c1)c1cc(-c3ccc(Cl)cc3Cl)c(=O)n(C)c1n2CCOC1CCCCO1 (centres undefined)
23,78 to 80,CC(C)c1cccc2c1C(=O)N(COC(=O)c1c(Cl)ccc(O)c1Cl)S2(=O)=O
24,179 to 180,COc1ccnc(CCc2nc3cc(-c4ccc(S(=O)(=O)N(C)C)cc4C)cnc3[nH]2)c1
25,64,CCOC(=O)Nc1cc(OCC)cc2c1CC(C)O2 (centres undefined)
26,88.5 to 89.5,CCCCCCOc1ccc(C(=O)CSc2ccnc3ccccc23)c(OC)c1

row,melting point [°C],Compound
1,182 to 183,C[C@@H](NC(=O)c1csc(-c2cccnc2)n1)[C@](O)(Cn1cncn1)c1ccc(F)cc1F
2,187 to 189,COc1ccc(C(=O)CCC(=O)O)cc1Cl
3,193,Cc1cncn1CC(O)c1ccccc1 (centres undefined)
4,232,Cc1cc(-c2ncn3c(C(F)(F)F)cc(-c4ccc(Cl)cc4)nc23)ccn1
5,90 to 92,CCOC(=O)/C=C/c1ccc(OCC)nc1Oc1ccc(Cl)cc1Cl
6,190 to 191,CC(C)(C)NCC(O)CN1C(=O)NC(Cc2c[nH]c3ccccc23)C1=O (centres undefined)
7,168 to 170,COc1cccc(S(=O)(=O)N2CCc3cc(O)c(OC)cc3C2)c1
8,270 to 272,CC(=C1SC(=O)NC1=O)c1ccc(OCCOc2c(-c3ccc(F)c(F)c3)n(C)c3cc(F)ccc3c2=O)cc1
9,> 230,CCCn1c(=S)[nH]c2ccsc2c1=O
10,52 to 53,CCCCCCCCCCOc1cc(OCCCCCCCCCC)cc(C(=O)OC)c1
11,129 to 131,Clc1ccc(-n2ncnc2-c2cnccn2)cc1
12,195 to 197,c1ccc2nc(CCN3CCc4[nH]c5ccccc5c4C3)ccc2c1
13,110 to 111,CCC(CC)c1nn(-c2ncc(C(F)(F)F)cn2)cc1CCCOc1c(C)cccc1CC(=O)O
14,92 to 93,CCOCc1cc2c(s1)CCCc1cc(=O)n(-c3ccc(C)cc3)nc1-2
15,118 to 120,Nc1cccc(Oc2cccc(Oc3cccc(N)c3)n2)c1
16,226 to 228,CCOC(=O)c1cc2c(cn1)[nH]c1ccc(N)cc12
17,87 to 88,Cc1c(OCC2CO2)noc1-c1ccccc1 (centres undefined)
18,159 to 160,CS(=O)(=O)c1nnc(-c2ccc(Cl)cc2)o1
19,145 to 148,CCCCC(=O)N(Cc1ccc(-c2ccccc2-c2nnn[nH]2)cc1)C(C(=O)O)c1ccccc1 (centres undefined)
20,175 to 176,NC(=O)C(NC(=O)OCc1ccccc1)C(O)CO (centres undefined)
21,179 to 180,Nc1cccc(C2NC(=O)Cc3ccccc32)c1 (centres undefined)
22,91.6,Cc1ccc(-c2ccccc2)cc1CNC(=O)N(C)N
23,208 to 214,CCc1nc2c(C(N)=O)cccc2n1-c1ccc(CCNC(=O)NS(=O)(=O)c2ccc(C)cc2)cc1
24,256 to 257,COc1nc2cnccc2nc1NS(=O)(=O)c1cccc(Cl)c1Cl
25,90 to 91,Cc1ccc(F)cc1-c1noc(CCC#Cc2ccccn2)n1
